# Where “and” joins values, the source holds several entries; their conditions need not be identical. Equal entries are not always repeated. Square brackets hold non-standard residues; d marks the D form. Peptide text beside a SMILES is read from it.
# Target: T1, Tau40 P301L protein (Homo sapiens, UniProt P10636, P618L)
# T1 construct: His (N); made in house; host or cells: E. coli BL21
# Assay: Thioflavin T assay of Tau40 amyloid inhibition (Tau40 assay)
# Format: biochemical
# Details: Thioflavin T fluorescence, Tau40 P301L 2.5 μM, 10 μM heparin
# T1 sequence (P10636 1-441 isoform P10636-8 P301L): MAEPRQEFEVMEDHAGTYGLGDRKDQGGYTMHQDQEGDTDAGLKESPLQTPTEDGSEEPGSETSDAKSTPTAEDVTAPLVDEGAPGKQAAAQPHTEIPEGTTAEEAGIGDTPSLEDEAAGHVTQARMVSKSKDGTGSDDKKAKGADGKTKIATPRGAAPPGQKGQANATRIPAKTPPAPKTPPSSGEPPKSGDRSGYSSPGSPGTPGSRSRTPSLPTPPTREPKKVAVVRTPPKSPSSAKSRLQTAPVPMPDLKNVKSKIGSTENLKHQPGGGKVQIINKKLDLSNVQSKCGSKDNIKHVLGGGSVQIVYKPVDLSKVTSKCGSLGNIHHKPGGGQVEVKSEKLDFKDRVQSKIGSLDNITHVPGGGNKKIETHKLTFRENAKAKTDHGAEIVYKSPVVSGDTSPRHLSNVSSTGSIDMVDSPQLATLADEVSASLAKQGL
structure (smiles),measurement,value
CC[C@@H](C)[C@@H](NC(=O)[C@@H](Cc1c[nH]cn1)NC(=O)[C@@H](CC(C)C)NC(=O)[C@@H](CCCCN)NC(=O)[C@H](N)Cc1ccccc1)C(=O)N[C@H](CCCNC(=N)N)C(=O)N[C@H](Cc1c[nH]cn1)C(=O)N[C@H](Cc1c[nH]c2ccccc12)C(=O)O [compound 128] (H-[dF][dK][dL][dH][dI][dR][dH][dW]-OH; N-terminus and C-terminus assumed),IC50,1.71 µM and 1.76 µM
